Experimental data published in patent US7214669B2, “Tetracycline derivatives and methods of use thereof” (Tetragenex Pharmaceuticals, Inc., priority 2001, dated 2007).

Assays:
Human recombinant MMP7 = target: T1, Human recombinant MMP7 (Homo sapiens, UniProt P09237); assay: MMP7 (Matrilysin) inhibition, 14C casein release; format: biochemical; details: 37° C., 16 hours; read-out: MMP-7 inhibitory activity, IC50
T1 sequence (P09237 95-267): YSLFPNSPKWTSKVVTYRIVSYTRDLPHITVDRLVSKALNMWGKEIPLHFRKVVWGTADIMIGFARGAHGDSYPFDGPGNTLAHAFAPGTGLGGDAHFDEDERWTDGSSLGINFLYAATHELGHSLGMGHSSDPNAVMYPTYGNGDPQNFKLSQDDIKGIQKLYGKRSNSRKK

MMP2 (Gelatinase A) = target: T2, MMP2 (Gelatinase A) (Homo sapiens, UniProt P08253); assay: MMP2 (Gelatinase A) inhibition, 14C gelatin release; format: biochemical; details: 37° C., 16 hours; read-out: MMP-2 inhibitory activity, IC50
T2 sequence (P08253 110-660): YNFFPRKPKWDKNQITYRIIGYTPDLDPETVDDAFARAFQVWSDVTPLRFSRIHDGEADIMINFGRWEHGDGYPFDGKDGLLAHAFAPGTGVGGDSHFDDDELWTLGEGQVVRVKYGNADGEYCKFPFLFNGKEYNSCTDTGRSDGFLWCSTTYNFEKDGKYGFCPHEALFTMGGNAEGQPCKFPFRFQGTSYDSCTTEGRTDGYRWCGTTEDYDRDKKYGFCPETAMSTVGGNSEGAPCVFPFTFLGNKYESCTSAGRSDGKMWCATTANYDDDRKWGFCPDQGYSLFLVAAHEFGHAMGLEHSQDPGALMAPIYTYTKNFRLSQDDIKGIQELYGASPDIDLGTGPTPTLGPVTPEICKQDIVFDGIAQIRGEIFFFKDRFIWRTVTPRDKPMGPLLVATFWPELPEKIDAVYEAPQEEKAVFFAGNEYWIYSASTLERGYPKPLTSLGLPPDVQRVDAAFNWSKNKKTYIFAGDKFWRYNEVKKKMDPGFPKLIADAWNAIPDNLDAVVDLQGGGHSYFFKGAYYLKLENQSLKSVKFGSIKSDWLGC

Human recombinant MMP1 = target: T3, Human recombinant MMP1 (Homo sapiens, UniProt P03956); assay: MMP1 (Collagenase-1) inhibition, 14C collagen release; format: biochemical; details: 35° C., 5 hours; read-out: MMP-1 inhibitory activity, IC50
T3 sequence (P03956 100-469): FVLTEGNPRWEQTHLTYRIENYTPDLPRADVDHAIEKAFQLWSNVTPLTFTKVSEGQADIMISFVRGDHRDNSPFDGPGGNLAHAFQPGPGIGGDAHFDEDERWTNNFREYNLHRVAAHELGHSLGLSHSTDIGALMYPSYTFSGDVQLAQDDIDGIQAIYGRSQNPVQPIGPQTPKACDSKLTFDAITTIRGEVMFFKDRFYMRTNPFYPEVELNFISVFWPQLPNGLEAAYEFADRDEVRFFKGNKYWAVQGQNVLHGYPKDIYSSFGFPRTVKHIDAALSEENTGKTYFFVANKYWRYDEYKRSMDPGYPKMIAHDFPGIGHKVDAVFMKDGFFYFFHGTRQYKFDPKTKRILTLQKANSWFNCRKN

Human recombinant MMP3 = Human recombinant MMP3 (Homo sapiens, UniProt P08254); assay: MMP3 (Stromelysin 1) inhibition, 14C casein release; format: biochemical; details: 37° C., 16 hours; read-out: MMP-3 inhibitory activity, IC50
Human recombinant MMP14 = Human recombinant MMP14 (Homo sapiens, UniProt P50281); assay: MMP14 (MTI-MMP) inhibition, 14C collagen release; format: biochemical; details: 35° C., 15 hours; read-out: MMP-14 inhibitory activity, IC50
Human recombinant MMP9 = Human recombinant MMP9 (Homo sapiens, UniProt P14780); assay: MMP9 (Gelatinase B) inhibition, 14C gelatin release; format: biochemical; details: 37° C., 16 hours; read-out: MMP-9 inhibitory activity, IC50
[1] = system: C8161 human melanoma cells; assay: Membrane Invasion Culture System (MICS) chemo-invasion assay; format: cell-based; details: 24 hours, + = increased invasiveness
Outline: (§1)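 Fifty thousand cells were seeded above a 35 μm laminin/collagen IV/gelatin barrier on a 10 μm-pore filter, with serum-free RPMI plus 50% fibroblast-conditioned medium below as chemoattractant. Compound at 1, 10 or 25 μg/ml, or DMSO vehicle, was present for 24 h. Invaded cells were collected, Wright-stained and counted over 5 fields.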

[2] = system: MDA-MB-231 human breast cancer cells; assay: as above; format: cell-based; details: 24 hours, + = increased invasiveness
Outline: as §1

[3] = system: PC-3 ML human prostate cancer cells; assay: as above; format: cell-based; details: 24 hours, + = increased invasiveness
Outline: as §1

[4] = system: RPMI-8226 human myeloma cancer cells; assay: as above; format: cell-based; details: 24 hours, + = increased invasiveness
Outline: as §1

Sequence of Human recombinant MMP9 (P14780 94-707): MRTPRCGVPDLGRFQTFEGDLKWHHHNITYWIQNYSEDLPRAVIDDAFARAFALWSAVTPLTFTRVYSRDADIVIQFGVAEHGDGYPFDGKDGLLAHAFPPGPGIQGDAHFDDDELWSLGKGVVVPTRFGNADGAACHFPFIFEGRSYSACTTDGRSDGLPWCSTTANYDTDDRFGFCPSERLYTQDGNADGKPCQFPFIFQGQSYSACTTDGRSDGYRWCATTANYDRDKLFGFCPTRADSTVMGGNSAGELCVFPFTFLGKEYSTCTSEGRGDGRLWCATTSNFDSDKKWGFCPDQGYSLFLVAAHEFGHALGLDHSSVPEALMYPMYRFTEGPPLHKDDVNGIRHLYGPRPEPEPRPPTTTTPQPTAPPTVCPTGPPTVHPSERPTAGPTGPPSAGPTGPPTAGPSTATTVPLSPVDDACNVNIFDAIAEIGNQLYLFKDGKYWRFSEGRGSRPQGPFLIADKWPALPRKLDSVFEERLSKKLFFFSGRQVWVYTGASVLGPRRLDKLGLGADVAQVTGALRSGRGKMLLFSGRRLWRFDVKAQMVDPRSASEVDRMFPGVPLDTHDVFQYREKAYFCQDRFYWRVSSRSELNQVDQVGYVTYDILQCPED
Sequence of Human recombinant MMP3 (P08254 100-477): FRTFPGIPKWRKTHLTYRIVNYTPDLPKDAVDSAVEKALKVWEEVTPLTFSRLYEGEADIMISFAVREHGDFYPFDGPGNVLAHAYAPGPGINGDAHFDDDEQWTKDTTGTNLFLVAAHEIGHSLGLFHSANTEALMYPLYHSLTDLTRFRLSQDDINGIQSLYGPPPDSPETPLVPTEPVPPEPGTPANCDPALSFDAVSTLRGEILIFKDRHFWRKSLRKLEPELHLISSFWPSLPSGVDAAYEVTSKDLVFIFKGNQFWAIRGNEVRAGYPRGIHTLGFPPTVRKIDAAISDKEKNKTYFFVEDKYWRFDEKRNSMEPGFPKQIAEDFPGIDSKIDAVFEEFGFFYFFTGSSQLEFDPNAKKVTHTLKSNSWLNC

Row | Compound | IC50 (Human recombinant MMP7) | IC50 (MMP2 (Gelatinase A)) | IC50 (Human recombinant MMP1) | IC50 (Human recombinant MMP3) | IC50 (Human recombinant MMP14) | IC50 (Human recombinant MMP9) | percent inhibition, C8161 (Melanoma) ([1]; 1 ug/mL) | percent inhibition, C8161 (Melanoma) ([1]; 10 ug/mL) | percent inhibition, C8161 (Melanoma) ([1]; 25 ug/mL) | percent inhibition, MDA-MB-231 (Breast) ([2]; 1 ug/mL) | percent inhibition, MDA-MB-231 (Breast) ([2]; 10 ug/mL) | percent inhibition, MDA-MB-231 (Breast) ([2]; 25 ug/mL) | percent inhibition, PC-3 ML (Prostrate) ([3]; 1 ug/mL) | percent inhibition, PC-3 ML (Prostrate) ([3]; 10 ug/mL) | percent inhibition, PC-3 ML (Prostrate) ([3]; 25 ug/mL) | percent inhibition, RPMI-8226 (Multiple Myeloma) ([4]; 1 ug/mL) | percent inhibition, RPMI-8226 (Multiple Myeloma) ([4]; 10 ug/mL) | percent inhibition, RPMI-8226 (Multiple Myeloma) ([4]; 25 ug/mL)
1 | CC(=O)Nc1ccc2c(c1O)C(=O)C1=C(O)C3(O)C(=O)C(C(N)=O)=C(O)C(N(C)C)C3C(O)C1C2C (centres unmarked) [Compound 16, 9-Acetamido-6-deoxy-5-hydroxytetracycline H2SO4] | 569 µM | 215 µM | 452 µM | > 1000 µM | 715 µM | 215 µM |  |  |  |  |  |  |  |  |  |  |  | 
2 | C[C@H]1c2c(N)ccc(O)c2C(=O)C2=C(O)[C@]3(O)C(=O)C(C(N)=O)=C(O)[C@@H](N(C)C)[C@@H]3[C@@H](O)[C@@H]21.O=S(=O)(O)O [Compound 12, 7-Amino-6-deoxy-5-hydroxytetracycline H2SO4] | 503 µM | > 1000 µM | > 1000 µM |  | > 1000 µM | 270 µM | +11% | +13% | +12% |  |  |  |  |  |  |  |  | 
3 | CC1c2c(N)cc(C(C)(C)C)c(O)c2C(=O)C2=C(O)C3(O)C(=O)C(C(N)=O)=C(O)CC3C(O)C21.O=S(=O)(O)O (centres unmarked) [Compound 49, 7-Amino-9-tertbutyl-4-dedimethyl-6-deoxy-5-hydroxy-tetracycline-H2SO4] |  | 1570 µM | 372 µM | 141 µM | 87 µM | 489 µM | 27^B percent | 7% | 30^B percent | 6% | +5% | +1% | 4% | +5% | 6% | 11% | +2% | 15%
4 | CC1c2c(N(C)C)ccc(O)c2C(=O)C2=C(O)C3(O)C(=O)C(C(N)=O)=C(O)C(N(C)C)C3C(O)C21 (centres unmarked) [Compound 15, 7-Dimethylamino-6-deoxy-5-hydroxy-tetracycline H2SO4] | 716 µM | 234 µM | > 1000 µM | 738 µM | 768 µM | 402 µM |  |  |  |  |  |  |  |  |  |  |  | 
5 | CN(C)c1cc(N)c(O)c2c1CC1CC3C(N(C)C)C(O)=C(C(N)=O)C(=O)C3(O)C(O)=C1C2=O (centres unmarked) [Compound 7, 9-Amino-7-dimethylamino-6-demethyl-6-deoxytetracycline H2SO4] | 335 µM | > 1000 µM |  | 300 µM | > 1000 µM | 64 µM | 7% | 14% | 16% | +18% | +41^B percent | +27% | 0% | 0% | 3% | +14^B percent | 12% | +2%
6 | CC1c2ccc([N+]#N)c(O)c2C(=O)C2=C(O)C3(O)C(=O)C(C(N)=O)=C(O)CC3C(O)C21.O=S(=O)([O-])O (centres unmarked) [Compound 37, 4-Dedimethylamino-6-deoxy-5-hydroxytetracycline-9-diazonium sulfate] |  | > 1000 µM | 279 µM | 274 µM | 41 µM | 445 µM | +1% | 20% | 69^B percent | +6% | 1% | 46^B percent | 11% | 26% | 36% | 10% | 5% | 46^B percent

Now from value to molecule, other results behind:

Row | IC50 (Human recombinant MMP7) | IC50 (MMP2 (Gelatinase A)) | IC50 (Human recombinant MMP1) | IC50 (Human recombinant MMP3) | IC50 (Human recombinant MMP14) | IC50 (Human recombinant MMP9) | Compound | percent inhibition, C8161 (Melanoma) ([1]; 1 ug/mL) | percent inhibition, C8161 (Melanoma) ([1]; 10 ug/mL) | percent inhibition, C8161 (Melanoma) ([1]; 25 ug/mL) | percent inhibition, MDA-MB-231 (Breast) ([2]; 1 ug/mL) | percent inhibition, MDA-MB-231 (Breast) ([2]; 10 ug/mL) | percent inhibition, MDA-MB-231 (Breast) ([2]; 25 ug/mL) | percent inhibition, PC-3 ML (Prostrate) ([3]; 1 ug/mL) | percent inhibition, PC-3 ML (Prostrate) ([3]; 10 ug/mL) | percent inhibition, PC-3 ML (Prostrate) ([3]; 25 ug/mL) | percent inhibition, RPMI-8226 (Multiple Myeloma) ([4]; 1 ug/mL) | percent inhibition, RPMI-8226 (Multiple Myeloma) ([4]; 10 ug/mL) | percent inhibition, RPMI-8226 (Multiple Myeloma) ([4]; 25 ug/mL)
7 |  | 186 µM | 860 µM | 682 µM | 83 µM | 114 µM | CC1c2ccc(C(C)(C)C)c(O)c2C(=O)C2=C(O)C3(O)C(=O)C(C(N)=O)=C(O)C(N(C)C)C3C(O)C21 (centres unmarked) [Compound 39, 9-tertbutyl-6-deoxy-5-hydroxytetracycline H2SO4] | 10% | 11% | 24% | 18^B percent | 29^B percent | 76^B percent | 44^B percent | 67^B percent | 69^B percent | 5% | 10% | 46^B percent
8 |  | 2530 µM | 211 µM | 48 µM | 40 µM | 34 µM | CC1c2c([N+]#N)cc(C(C)(C)C)c(O)c2C(=O)C2=C(O)C3(O)C(=O)C(C(N)=O)=C(O)CC3C(O)C21 (centres unmarked) [Compound 50, 4-Dedimethylamino-9-tertbutyl-6-deoxy-5-hydroxytetracycline-7-diazonium H2SO4] | 5% | +2% | 1% | 7% | 0% | 2% | +14% | +17% | +10% | +14% | +8% | +13%
9 |  | 889 µM | 478 µM | 54 µM | 403 µM | 250 µM | CN(C)c1ccc(O)c2c1CC1CC3CC(O)=C(C(N)=O)C(=O)C3(O)C(O)=C1C2=O (centres unmarked) [Compound 41, 4-Dedimethylamino-7-dimethylamino-6-demethyl-6-deoxy-tetracycline H2SO4] | 2% | 8% | 6% | +8% | 3% | 2% | +4% | 4% | 4% | 7% | +6% | 14%
